Assay [1] deals with T1, PSMA-expressing C4-2 cells (Homo sapiens, UniProt Q04609).
T1 construct: PSMA-expressing C4-2 cells (ATCC, Cat. No. CRL-3314) were cultured in RPMI-1640; host or cells: C4-2 cells
Nature of the assay: FACS binding assay (competition with 50 nM PSM-0183). The following applies: read-out: pIC50 [C4-2] CAT (converted). In outline:
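C4-2 cells were incubated 1 h at 4 °C with 50 nM AF488-labelled peptide PSM-0183 plus increasing test compound concentrations, then washed twice in ice-cold buffer. Median fluorescence in the AF488 channel was read by flow cytometry. IC50/pIC50 was derived by 4PL fitting of MFI versus concentration.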
In general terms: A flow cytometer gives signals particle by particle.

Assay [2] deals with T2, Fc-fusion protein of human PSMA (hPSMA-Fc) (Homo sapiens, UniProt Q04609).
T2 construct: purchased Acro Biosystems PSA-H5264
Briefly: Surface plasmon resonance assay (Biacore T200, single cycle kinetic). Format: binding. To be noted: hPSMA-Fc, 25° C., read-out: pKD CAT (converted). In outline:
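hPSMA-Fc was captured (~1000 RU) on an Fc-binding-peptide CM5 chip, and compounds were run in single cycle kinetic mode at 25° C in HBST with 0.1% DMSO. Double-blank-corrected sensorgrams were fitted to a 1:1 Langmuir model to give KD, reported as pKD.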
Background: Surface plasmon resonance follows binding to a sensor surface in real time, without labels.

We go through three compounds from patent publication US20260083865A1, “PROSTATE SPECIFIC MEMBRANE ANTIGEN (PSMA) LIGANDS AND USE THEREOF” (priority 2022, published 2026).

Like-named read-outs stand apart in the source and are kept apart here. Numbered stars: 1 amine (or outer) side, 2 acyl side, 3 side chain; on linkers, the order of the positions; unused ones are H or OH. Bridge positions count the residues as written; N and C are the ends. Square brackets hold non-standard residues; d marks the D form. Peptide text beside a SMILES is read from it. * marks the point of attachment. DOTA = O=C(O)CN1CCN(CC(=O)O)CCN(CC(=O)*)CCN(CC(=O)O)CC1; Phe(3-Cl) = N[C@@H](Cc1cccc(Cl)c1)C(=O)O; Phe(4-Cl) = N[C@@H](Cc1ccc(Cl)cc1)C(=O)O; X1 = O=C(CC1CCN([*:1])CC1)[*:2]; Cit = NC(=O)NCCC[C@H](N)C(=O)O; Tle = CC(C)(C)[C@H](N)C(=O)O; Aib = CC(C)(N)C(=O)O; CO = O=C([*:1])[*:2]; NHBu = CCCCN*

T1 sequence (Q04609 whole entry): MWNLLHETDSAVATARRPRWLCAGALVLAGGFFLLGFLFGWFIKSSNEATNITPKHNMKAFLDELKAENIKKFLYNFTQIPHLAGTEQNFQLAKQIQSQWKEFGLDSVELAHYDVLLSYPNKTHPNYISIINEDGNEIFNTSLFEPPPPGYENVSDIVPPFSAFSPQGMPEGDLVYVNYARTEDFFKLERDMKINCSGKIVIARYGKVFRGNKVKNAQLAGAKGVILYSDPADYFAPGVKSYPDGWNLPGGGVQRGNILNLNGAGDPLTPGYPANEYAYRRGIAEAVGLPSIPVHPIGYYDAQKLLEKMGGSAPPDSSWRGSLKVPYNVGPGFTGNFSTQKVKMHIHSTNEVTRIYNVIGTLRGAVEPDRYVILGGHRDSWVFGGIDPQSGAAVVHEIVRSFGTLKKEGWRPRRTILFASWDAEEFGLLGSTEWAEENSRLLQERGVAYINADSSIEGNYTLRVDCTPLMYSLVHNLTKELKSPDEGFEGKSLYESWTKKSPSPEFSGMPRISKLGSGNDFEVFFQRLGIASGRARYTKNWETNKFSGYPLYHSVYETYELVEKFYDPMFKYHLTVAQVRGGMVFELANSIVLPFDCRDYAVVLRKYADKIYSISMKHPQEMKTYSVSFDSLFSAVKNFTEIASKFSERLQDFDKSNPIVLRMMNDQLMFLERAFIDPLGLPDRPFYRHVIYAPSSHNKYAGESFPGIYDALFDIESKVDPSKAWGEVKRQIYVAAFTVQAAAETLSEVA
T2 sequence (Q04609 44-750 limits assumed): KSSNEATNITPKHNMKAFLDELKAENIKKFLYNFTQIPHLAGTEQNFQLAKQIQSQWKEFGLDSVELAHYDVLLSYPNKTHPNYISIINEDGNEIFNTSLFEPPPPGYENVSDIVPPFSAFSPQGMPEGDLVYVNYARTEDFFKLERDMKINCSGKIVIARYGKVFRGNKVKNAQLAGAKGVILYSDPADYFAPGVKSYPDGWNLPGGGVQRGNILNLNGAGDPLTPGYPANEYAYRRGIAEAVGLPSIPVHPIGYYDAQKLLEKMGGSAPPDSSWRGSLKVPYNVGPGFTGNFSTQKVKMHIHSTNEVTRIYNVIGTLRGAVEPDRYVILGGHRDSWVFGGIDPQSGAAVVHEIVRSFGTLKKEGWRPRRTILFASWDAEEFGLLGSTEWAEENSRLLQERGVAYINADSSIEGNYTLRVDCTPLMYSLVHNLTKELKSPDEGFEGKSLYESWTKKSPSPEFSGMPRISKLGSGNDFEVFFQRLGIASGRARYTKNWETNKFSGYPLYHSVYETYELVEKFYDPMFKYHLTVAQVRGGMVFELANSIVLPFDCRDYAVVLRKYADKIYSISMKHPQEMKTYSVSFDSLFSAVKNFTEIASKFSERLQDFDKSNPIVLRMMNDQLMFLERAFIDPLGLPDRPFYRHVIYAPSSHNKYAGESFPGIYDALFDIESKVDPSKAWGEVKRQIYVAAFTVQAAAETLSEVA

`CCCCNC(=O)N[C@H](C(=O)NC(C)(C)C(=O)N[C@@H](Cc1cccc(Cl)c1)C(=O)N[C@H]1CSSC[C@@H](C(=O)N[C@H](C(=O)N[C@H](C(=O)N2CCC(CC(=O)N[C@H](CCCCNC(=O)CN3CCN(CC(=O)O)CCN(CC(=O)O)CCN(CC(=O)O)CC3)C(N)=O)CC2)[C@@H](C)O)C(C)(C)C)NC(=O)[C@H](CC(N)=O)NC(=O)C(C)(C)NC(=O)[C@H](CCCNC(N)=O)NC(=O)[C@H](CCCCN)NC1=O)[C@@H](C)O` [PSM-0207, nBuCAyl-Thr-Aib-Mcf-[Cys-Lys-Cit-Aib-Asn-Cys]-Tle-Thr-Cmp-lys(DOTA)-NH2] ({NHBu-CO}-T[Aib][Phe(3-Cl)]CK[Cit][Aib]NC[Tle]T[X1][dK](DOTA)-NH2; disulfide 4-9): in assay [1] (FACS binding, C4-2 cells, competition with 50 nM PSM-0183, category), the IC50 is below 200 nM. In assay [2] (SPR, single cycle kinetic, category), the Kd was 12.6 to 126 nM.

Turning to `CC(=O)N[C@H](C(=O)NC(C)(C)C(=O)N[C@@H](Cc1cccc(Cl)c1)C(=O)N[C@H]1CSSC[C@@H](C(=O)N[C@H](C(=O)N[C@H](C(=O)N2CCC(CC(=O)N[C@H](CCCCNC(=O)CN3CCN(CC(=O)O)CCN(CC(=O)O)CCN(CC(=O)O)CC3)C(N)=O)CC2)[C@@H](C)O)C(C)(C)C)NC(=O)[C@H](CC(N)=O)NC(=O)C(C)(C)NC(=O)[C@H](CCCNC(=N)N)NC(=O)[C@H](CCCCN)NC1=O)[C@@H](C)O` [PSM-0486, Ac-Thr-Aib-Mcf-[Cys-Lys-Arg-Aib-Asn-Cys]-Tle-Thr-Cmp-lys(DOTA)-NH2] (Ac-T[Aib][Phe(3-Cl)]CKR[Aib]NC[Tle]T[X1][dK](DOTA)-NH2; disulfide 4-9), the IC50 in assay [1] (pIC50 category of FACS binding, C4-2 cells) is below 200 nM. Further, the Kd in assay [2] (pKD category for PSMA SPR activity assay) is below 12.6 nM.

As for `C[C@@H](O)[C@H](NC(=O)[C@@H](NC(=O)[C@@H]1CSSC[C@H](NC(=O)[C@H](Cc2ccc(Cl)cc2)NC(=O)[C@@H](CCC(=O)O)NC(=O)[C@@H](NC(=O)CC2CCN(C(=O)CN3CCN(CC(=O)O)CCN(CC(=O)O)CCN(CC(=O)O)CC3)CC2)[C@@H](C)O)C(=O)N[C@@H](CCCCN)C(=O)N[C@@H](CCCNC(=N)N)C(=O)NC(C)(C)C(=O)N[C@@H](CC(N)=O)C(=O)N1)C(C)(C)C)C(N)=O` [PSM-0343, DOTA-Cmp-Thr-glu-Pcf-[Cys-Lys-Arg-Aib-Asn-Cys]-Tle-Thr-NH2] ({DOTA}-[X1]T[dE][Phe(4-Cl)]CKR[Aib]NC[Tle]T-NH2; disulfide 5-10), the IC50 in assay [1] (FACS binding, PSMA-expressing C4-2 cells, pIC50 category) was above 3160 nM. Further, the Kd in assay [2] (PSMA SPR assay, pKD category) was above 501 nM.
